According to PMC8854719, “Phase 1A/1B dose-escalation and -expansion study to evaluate the safety, pharmacokinetics, food effects and antitumor activity of pamiparib in advanced solid tumours” (British Journal of Cancer, 2021):
Entries after “also recorded” stand apart in the source; their conditions may differ. Marks after values point to notes of the source that are not given here.

Test: Safety and tolerability: adverse events, dose-limiting toxicities, MTD, RP2D (Phase 1A/1B)
Assay type: in vivo
Description: This was an open-label, Phase 1, dose-escalation/dose-expansion study, conducted across six study centres in Australia. The dose-escalation phase evaluated twice-daily (BID) and once-daily (QD) dosing, and the dose-expansion phase evaluated the BID RP2D from the dose-escalation phase and food effects (Fig. 1). The food-effects cohort comprised two sequences: fast followed by fed (sequence 1) and fed followed by fast (sequence 2). […] The decision to proceed to the next dose cohort was determined by the Safety Monitoring Committee and followed a modified 3 + 3 escalation scheme. […] When ≥2 DLTs occurred in the first 23 days of a dose level, the next lower dose level was declared the MTD. Safety was monitored and DLTs were assessed in all dose cohorts. […] The food-effects cohort investigated the effects of food on the PK of pamiparib in patients with advanced solid tumours.
The QD dosing regimen was added as an amendment to the protocol with the purpose of exploring the feasibility of a more convenient regimen.
Safety and tolerability were assessed throughout the study by monitoring adverse events (AEs), serious AEs, clinical laboratory measurements and physical examinations. Adverse events were categorised according to their severity (National Cancer Institute Common Terminology Criteria for Adverse Events v4.03) and relationship to the study treatment.

## C[C@]12CCCN1CC1=NNC(=O)c3cc(F)cc4[nH]c2c1c34 [pamiparib]
120 mg BID (n = 5)
  Pyrexia, AE of any grade: 1 (20.0) n (%)
  Treatment-emergent AE: 5 (100.0) n (%)
  Treatment-emergent AE: Grade 3 or higher: 5 (100.0) n (%)
  Treatment-emergent AE: Leading to death: 0 (0.0) n (%)
  Treatment-emergent AE: Leading to dose interruption: 4 (80.0) n (%)
  Treatment-emergent AE: Leading to dose modification: 4 (80.0) n (%)
  Treatment-emergent AE: Leading to dose reduction: 1 (20.0) n (%)
  Treatment-emergent AE: Leading to treatment discontinuation: 2 (40.0) n (%)
  Treatment-emergent AE: Serious: 3 (60.0) n (%)
  Treatment-related AE: 5 (100.0) n (%)
  Treatment-related AE: Grade 3 or higher: 3 (60.0) n (%)
  Treatment-related AE: Leading to death: 0 (0.0) n (%)
  Treatment-related AE: Leading to dose interruption: 3 (60.0) n (%)
  Treatment-related AE: Leading to dose modification: 3 (60.0) n (%)
  Treatment-related AE: Leading to dose reduction: 1 (20.0) n (%)
  Treatment-related AE: Leading to treatment discontinuation: 2 (40.0) n (%)
  Treatment-related AE: Serious: 1 (20.0) n (%)
  Upper respiratory tract infection, AE of any grade: 0 (0.0) n (%)
  Urinary tract infection, AE of any grade: 2 (40.0) n (%)
  Vomiting, AE of any grade: 1 (20.0) n (%)
120 mg BID, two patients, n = 1 each
  Dose-limiting toxicities observed (description): Grade 2 nausea, grade 3 fatigue, and grade 3 paresthesia; also recorded: Grade 2 nausea and Grade 2 anorexia; also recorded: Grade 2 nausea, Grade 3 fatigue and Grade 3 paraesthesia
120 mg QD
  Diarrhea, AE: 50.0%
  Fatigue, AE: 75.0%
  Nausea, AE: 50.0%
120 mg QD (n=8)
  Dose-limiting toxicity: 0 (0.0) n (%)
  Treatment-emergent AE: 8 (100.0) n (%)
  Treatment-emergent AE: Grade 3 or higher: 5 (62.5) n (%)
  Treatment-emergent AE: Leading to death: 0 (0.0) n (%)
  Treatment-emergent AE: Leading to dose interruption: 6 (75.0) n (%)
  Treatment-emergent AE: Leading to dose modification: 6 (75.0) n (%)
  Treatment-emergent AE: Leading to dose reduction: 1 (12.5) n (%)
  Treatment-emergent AE: Leading to treatment discontinuation: 0 (0.0) n (%)
  Treatment-emergent AE: Serious: 2 (25.0) n (%)
  Treatment-related AE: 6 (75.0) n (%)
  Treatment-related AE: Grade 3 or higher: 3 (37.5) n (%)
  Treatment-related AE: Leading to death: 0 (0.0) n (%)
  Treatment-related AE: Leading to dose interruption: 4 (50.0) n (%)
  Treatment-related AE: Leading to dose modification: 4 (50.0) n (%)
  Treatment-related AE: Leading to dose reduction: 1 (12.5) n (%)
  Treatment-related AE: Leading to treatment discontinuation: 0 (0.0) n (%)
  Treatment-related AE: Serious: 0 (0.0) n (%)
160 mg QD
  Diarrhea, AE: 45.5%
  Fatigue, AE: 63.6%
  Nausea, AE: 90.9%
160 mg QD (n=11)
  Dose-limiting toxicity: 1 (9.1)^d n (%)
  Treatment-emergent AE: 11 (100.0) n (%)
  Treatment-emergent AE: Grade 3 or higher: 9 (81.8) n (%)
  Treatment-emergent AE: Leading to death: 0 (0.0) n (%)
  Treatment-emergent AE: Leading to dose interruption: 7 (63.6) n (%)
  Treatment-emergent AE: Leading to dose modification: 7 (63.6) n (%)
  Treatment-emergent AE: Leading to dose reduction: 0 (0.0) n (%)
  Treatment-emergent AE: Leading to treatment discontinuation: 2 (18.2) n (%)
  Treatment-emergent AE: Serious: 4 (36.4) n (%)
  Treatment-related AE: 11 (100.0) n (%)
  Treatment-related AE: Grade 3 or higher: 7 (63.6) n (%)
  Treatment-related AE: Leading to death: 0 (0.0) n (%)
  Treatment-related AE: Leading to dose interruption: 7 (63.6) n (%)
  Treatment-related AE: Leading to dose modification: 7 (63.6) n (%)
  Treatment-related AE: Leading to dose reduction: 0 (0.0) n (%)
  Treatment-related AE: Leading to treatment discontinuation: 2 (18.2) n (%)
  Treatment-related AE: Serious: 1 (9.1) n (%)
160 mg QD, one of 11
  Patients who experienced a DLT: 9%
160 mg QD, one patient
  Dose-limiting toxicities observed (description): grade 2 nausea
101 patients
  Serious AE: anemia: 4.0%
  Serious AE: intestinal obstruction: 4.0%
  Serious AE: malignant gastrointestinal obstruction: 3.0%
